Measurements: patent publication US9738932B2, “Biomarkers for cardiovascular side-effects induced by cox-2 inhibitory compounds” (FIRALIS SAS, priority 2005, dated 2017)

Test system: mRNA expression in cardiovascular tissues
Assay: Affymetrix GeneChip mRNA expression profiling of monkey tissues (iliac vein, pulmonary vein, aorta, carotid artery, heart) after two-week oral-gavage treatment
Details: iliac vein; group avg, Vioxx without A60055

Compound: O=C(O)Cc1ccccc1Nc1c(Cl)cccc1Cl [Voltaren]
- HFE (211329_x_at) avg fold change vs control: 0.9 fold
- HFE (211332_x_at) avg fold change vs control: 0.9 fold
- HFE (211863_x_at) avg fold change vs control: 1.0 fold
- HFE (211866_x_at) avg fold change vs control: 0.9 fold
- HHL (203020_at) avg fold change vs control: 0.8 fold
- HLA-A (211528_x_at) avg fold change vs control: 1.1 fold
- HLA-A (211529_x_at) avg fold change vs control: 1.2 fold
- HLA-A (211530_x_at) avg fold change vs control: 1.6 fold
- HLA-A (215313_x_at) avg fold change vs control: 1.3 fold
- HLA-B (208729_x_at) avg fold change vs control: 1.2 fold
- HLA-B (209140_x_at) avg fold change vs control: 1.2 fold
- HLA-B (211911_x_at) avg fold change vs control: 1.2 fold
- HLA-C (208812_x_at) avg fold change vs control: 1.2 fold
- HLA-C (214459_x_at) avg fold change vs control: 1.3 fold
- HLA-C (216526_x_at) avg fold change vs control: 1.5 fold
- HLA-DMA (217478_s_at) avg fold change vs control: 1.3 fold
- HLA-DMB (203932_at) avg fold change vs control: 1.0 fold
- HLA-DQA1 (212671_s_at) avg fold change vs control: 1.2 fold
- HLA-DQB1 (209823_x_at) avg fold change vs control: 1.3 fold
- HLA-DQB1 (211654_x_at) avg fold change vs control: 1.6 fold
- HLA-DQB1 (211656_x_at) avg fold change vs control: 1.2 fold
- HLA-DQB2 (212998_x_at) avg fold change vs control: 2.2 fold
- HLA-DRA (208894_at) avg fold change vs control: 1.1 fold
- HLA-DRA (210982_s_at) avg fold change vs control: 1.0 fold
- HLA-DRB1 (215193_x_at) avg fold change vs control: 1.3 fold
- HLA-DRB3 (209312_x_at) avg fold change vs control: 1.1 fold
- HLA-DRB6 (217362_x_at) avg fold change vs control: 1.0 fold
- HLA-E (200905_x_at) avg fold change vs control: 1.2 fold
- HLA-E (217456_x_at) avg fold change vs control: 1.2 fold
- HLA-F (204806_x_at) avg fold change vs control: 1.0 fold
- HLA-F (221875_x_at) avg fold change vs control: 1.0 fold
- ICAM1 (202638_s_at) avg fold change vs control: 1.5 fold
- ICAM1 (215485_s_at) avg fold change vs control: 1.1 fold
- ICSBP1 (204057_at) avg fold change vs control: 1.1 fold
- IFI27 (202411_at) avg fold change vs control: 5.6 fold
- IFI30 (201422_at) avg fold change vs control: 1.4 fold
- IFI44 (214453_s_at) avg fold change vs control: 1.7 fold
- IFIT1 (203153_at) avg fold change vs control: 1.0 fold
- IFIT2 (217502_at) avg fold change vs control: 0.8 fold
- IFIT4 (204747_at) avg fold change vs control: 0.9 fold
- IFITM2 (201315_x_at) avg fold change vs control: 1.6 fold
- IFITM3 (212203_x_at) avg fold change vs control: 1.3 fold
- IGF1 (209541_at) avg fold change vs control: 1.2 fold
- IGFBP4 (201508_at) avg fold change vs control: 0.8 fold
- IL1A (208200_at) avg fold change vs control: 1.2 fold
- IL2RG (204116_at) avg fold change vs control: 1.2 fold
- IL27RA (205926_at) avg fold change vs control: 1.3 fold
- INDO (210029_at) avg fold change vs control: 1.4 fold
- INPP5D (203332_s_at) avg fold change vs control: 1.2 fold
- IRF1 (202531_at) avg fold change vs control: 1.1 fold
- IRF7 (208436_s_at) avg fold change vs control: 1.2 fold
- ISGF3G (203882_at) avg fold change vs control: 1.4 fold
- ITGB2 (202803_s_at) avg fold change vs control: 1.0 fold
- JAK1 (214377_s_at) avg fold change vs control: 1.1 fold
- KLKB1 (206541_at) avg fold change vs control: 1.2 fold
- LAIR1 (208071_s_at) avg fold change vs control: 0.8 fold
- LCK (204890_s_at) avg fold change vs control: 0.9 fold
- LCP2 (205270_s_at) avg fold change vs control: 1.2 fold
- LILRB1 (207857_at) avg fold change vs control: 0.8 fold
- LILRB1 (211100_x_at) avg fold change vs control: 1.2 fold
- LILRB3 (208594_x_at) avg fold change vs control: 1.4 fold
- LILRB3 (210225_x_at) avg fold change vs control: 1.3 fold
- LRMP (204674_at) avg fold change vs control: 1.6 fold
- LY86 (205859_at) avg fold change vs control: 1.2 fold
- LY96 (206584_at) avg fold change vs control: 1.4 fold
- LYN (210754_s_at) avg fold change vs control: 1.1 fold
- MAF (209348_s_at) avg fold change vs control: 0.9 fold
- PCOLCE (202465_at) avg fold change vs control: 0.3 fold
- PLA2G4C (209785_s_at) avg fold change vs control: 1.0 fold
- PLCL2 (216217_at) avg fold change vs control: 1.0 fold
- PLSCR1 (202446_s_at) avg fold change vs control: 1.5 fold
- PRC1 (218009_s_at) avg fold change vs control: 0.8 fold
- PRG1 (201858_s_at) avg fold change vs control: 1.1 fold
- PRG1 (201859_at) avg fold change vs control: 1.2 fold
- PTPN22 (206060_s_at) avg fold change vs control: 0.9 fold
- PTPRC (207238_s_at) avg fold change vs control: 1.3 fold
- SOCS3 (206360_s_at) avg fold change vs control: 1.4 fold
- STAT1 (209969_s_at) avg fold change vs control: 2.3 fold
- STAT1 (AFFX-HUMISGF3A/M97935_5_at) avg fold change vs control: 1.0 fold
- STAT1 (AFFX-HUMISGF3A/M97935_MA_at) avg fold change vs control: 1.0 fold
- STAT1 (AFFX-HUMISGF3A/M97935_MB_at) avg fold change vs control: 1.1 fold
- TAPBP (208829_at) avg fold change vs control: 1.0 fold
- TCTEL1 (201999_s_at) avg fold change vs control: 0.9 fold
- TLR1 (210176_at) avg fold change vs control: 1.3 fold
- TLR2 (204924_at) avg fold change vs control: 1.4 fold
- TNFAIP3 (202643_s_at) avg fold change vs control: 1.3 fold
- TNFAIP3 (202644_s_at) avg fold change vs control: 1.7 fold
- TNFSF6 (210865_at) avg fold change vs control: 1.2 fold
- TNFSF10 (202687_s_at) avg fold change vs control: 1.2 fold
- TNFSF10 (202688_at) avg fold change vs control: 1.1 fold
- TRGC2 (211144_x_at) avg fold change vs control: 1.0 fold
- TRGC2 (216920_s_at) avg fold change vs control: 1.2 fold
- VCAM1 (203868_s_at) avg fold change vs control: 1.4 fold
- XCL1 (206366_x_at) avg fold change vs control: 1.8 fold
- XCL1 (214567_s_at) avg fold change vs control: 0.5 fold
- XLKD1 (219059_s_at) avg fold change vs control: 1.4 fold
- cig5 (213797_at) avg fold change vs control: 2.1 fold
